Results reported in patent publication US9345696B2, “Methods for treating nicotinic acetylcholine receptor associated diseases” (priority 2010, dated 2016).

Key:
[1] = system: binocular zone of V1 of Lynx1 knockout and wild-type mice; test: Ocular dominance plasticity after short-term monocular deprivation, extracellular recording in vivo (contralateral bias index); design: species or system mouse; conditions: for effect on adult ocular dominance plasticity in Lynx1 knockout mice (in words): concurrent with short-term MD
Description: (§1) Eyelid margins were trimmed by iris scissor and eyes sutured shut under isoflurane anesthesia. Eyes were closed 4-5 days for short term MD (STMD), from P19 to >P60 for long term MD (CP-LTMD), and from P19 to P33 for recovery studies.
Electrophysiological recording was performed under nembutal/chlorprothixene anesthesia using standard techniques for mice (T. K. Hensch et al., Science 282: 1504 (1998); J. A. Gordon, M. P. Stryker, J Neurosci 16: 3274 (1996). Ocular dominance in the binocular zone of each mouse was calculated as a contralateral bias index (CBI): [(n1−n7)+2/3(n2−n6)+⅓(n3−n5)+N]/2N, where N=total number of cells and nx=number of cells corresponding to ocular dominance score of x (J. A. Gordon, M. P. Stryker, J Neurosci 16, 3274 (1996)). For statistical comparison of OD distributions, normalized OD scores of single neurons were plotted as cumulative distribution for each experimental group. OD score was computed by PSTH analysis of peak to baseline spiking activity in response to each eye: {[Peak(ipsi)−baseline(ipsi)]−[Peak(contra)-baseline(contra)]}/{[Peak(ipsi)-baseline(ipsi)]+[Peak(contra)-baseline(contra)]}(T. Pizzorusso et al., Science, 298: 1248 (2002)).

V1 of wild-type mice = test: Recovery from amblyopia: visual acuity by visual evoked potentials in V1 after long-term MD and eye reopening; type: in vivo, mouse; conditions: WT mice
Description: as §1

Row | Structure (SMILES) | contralateral bias index (CBI) ([1]; adult Lynx1 KO mice, adult MD, focal infusion into V1 by osmotic minipump) | effect on adult ocular dominance plasticity in Lynx1 knockout mice (in words) ([1]; adult Lynx1 KO mice) | contralateral bias index (CBI) ([1]; adult Lynx1 KO mice, no MD, with mecamylamine) | contralateral bias index (CBI) ([1]; adult Lynx1 KO mice, short-term MD with concurrent nAChR antagonist (systemic i.p. daily or cortical minipump infusion)) | contralateral bias index (CBI) ([1]; adult WT mice, short-term MD with concurrent mecamylamine) | Visual acuity (VEP) (V1 of wild-type mice; LTMD P19 to P33, deprived eye reopened, 0.1 mg/kg i.p. daily from P45, recorded >P60) | Visual acuity (VEP) (V1 of wild-type mice; no MD, with AChEI)
1 | CN1C(=O)CN=C(c2ccccc2)c2cc(Cl)ccc21 [Diazepam] | 0.67 | abolished adult plasticity | – | – | – | – | –
2 | CNC1(C)C2CCC(C2)C1(C)C (centres unmarked) [mecamylamine] | – | sufficient to prevent adult plasticity | 0.68 | 0.68 | 0.69 | – | –
3 | CNC(=O)Oc1ccc2c(c1)[C@]1(C)CCN(C)[C@@H]1N2C [physostigmine] | – | – | – | – | – | 0.48±0.06 cyc/deg | 0.47±0.02 cyc/deg
